# Tested on: primary rat mixed cortical cells
# Assay: In vitro myelination assay (MBP positive myelin strands, fold myelin pixels above background)
# Format: cell-based
# Settings: Rattus norvegicus, relative to baseline of no added compound; for fold induction at 1 µM: 1.0 μM compound, read-out: Fold myelin pixels above background, 1.0 μM; for fold induction at 10 µM: 10.0 μM compound, read-out: Fold myelin pixels above background, 10.0 μM
# Procedure, shortened: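 P1 rat mixed cortical cultures (neurons, OPCs, oligodendrocytes, astrocytes, microglia) grown 14 days at 37 °C with compound, half-medium refreshed with compound on days 6 and 10. Fixed cells stained for MBP; MBP-positive myelin strand pixels per well quantified by automated imaging, reported as fold over no-compound baseline at 1.0 and 10.0 μM.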
Compound,fold induction at 1 µM,fold induction at 10 µM
"CC(C)c1cc(Nc2ncn(-c3cc(F)cc(F)c3)n2)cc(N2CCN(C3COC3)CC2)c1 [Compound 359, 1-(3,5-difluorophenyl)-N-[3-isopropyl-5-[4-(oxetan-3-yl)piperazin-1-yl]phenyl]-1,2,4-triazol-3-amine]",1000 to 10000,≤ 1
"Cc1cc(Nc2ncn(-c3cc(F)cc(F)c3)n2)cc(N2CCN(C)C(=O)C2)c1 [Compound 360, 4-[3-[[1-(3,5-difluorophenyl)-1,2,4-triazol-3-yl]amino]-5-methyl-phenyl]-1-methyl-piperazin-2-one]",10 to 100,10 to 100
"CS(=O)(=O)c1cc(Nc2ncn(-c3cccc(F)c3)n2)cc(N2CCN(C3COC3)CC2)c1 [Compound 361, 1-(3-fluorophenyl)-N-[3-methylsulfonyl-5-[4-(oxetan-3-yl)piperazin-1-yl]phenyl]-1,2,4-triazol-3-amine]",100 to 1000,≤ 1
"Cc1cc(Nc2ncn(-c3cc(F)cc(F)c3)n2)cc(N2CCNC(C)C2)c1 (stereo not drawn) [Compound 362, 1-(3,5-difluorophenyl)-N-[3-methyl-5-(3-methylpiperazin-1-yl)phenyl]-1,2,4-triazol-3-amine]",100 to 1000,≤ 1
"Cc1cc(Nc2ncn(-c3ccccc3)n2)cc(C2COC2)c1 [Compound 363, N-[3-methyl-5-(oxetan-3-yl)phenyl]-1-phenyl-1,2,4-triazol-3-amine]",1000 to 10000,100 to 1000
"COCc1cc(-n2cnc(Nc3cc(C)cc(N4CCN(C5COC5)CC4)c3)n2)ncn1 [Compound 364, 1-[6-(methoxymethyl)pyrimidin-4-yl]-N-[3-methyl-5-[4-(oxetan-3-yl)piperazin-1-yl]phenyl]-1,2,4-triazol-3-amine]",1 to 10,10 to 100
"Cc1cc(Nc2ncn(-c3cc(F)cc(F)c3)n2)cc(N2CCN(C)CC2)n1 [Compound 365, N-[1-(3,5-difluorophenyl)-1,2,4-triazol-3-yl]-2-methyl-6-(4-methylpiperazin-1-yl)pyridin-4-amine]",10 to 100,≤ 1
"FC(F)(F)c1cc(Nc2ncn(-c3ccccc3)n2)cc(N2CCOCC2)c1 [Compound 366, N-[3-morpholino-5-(trifluoromethyl)phenyl]-1-phenyl-1,2,4-triazol-3-amine]",1000 to 10000,1000 to 10000
"CN1CCN(c2cc(Nc3ncn(-c4ccccc4)n3)cc(Cl)n2)CC1 [Compound 367, 2-chloro-6-(4-methylpiperazin-1-yl)-N-(1-phenyl-1,2,4-triazol-3-yl)pyridin-4-amine]",100 to 1000,100 to 1000
"CCc1cc(Nc2ncn(-c3cnccn3)n2)cc(N2CCN(C(=O)OC(C)(C)C)CC2)c1 [Compound 368, tert-butyl 4-[3-ethyl-5-[(1-pyrazin-2-yl-1,2,4-triazol-3-yl)amino]phenyl]piperazine-1-carboxylate]",10 to 100,1 to 10
"Cc1cc(Nc2ncn(-c3ccccc3)n2)cc(N2C[C@H]3CCN(C)[C@H]3C2)c1 [Compound 369, N-[3-[(3aR,6aR)-1-methyl-2,3,3a,4,6,6a-hexahydropyrrolo[2,3-c]pyrrol-5-yl]-5-methyl-phenyl]-l-phenyl-1,2,4-triazol-3-amine]",1000 to 10000,≤ 1
"CC(=O)N1CCN(c2cc(C)cc(Nc3ncn(-c4cc(F)cc(F)c4)n3)c2)CC1 [Compound 370, 1-[4-[3-[[1-(3,5-difluorophenyl)-1,2,4-triazol-3-yl]amino]-5-methyl-phenyl]piperazin-1-yl]ethanone]",1000 to 10000,100 to 1000
"Fc1cc(Nc2ncn(-c3cncc(F)c3)n2)cc(N2CCOCC2)c1 [Compound 371, N-(3-fluoro-5-morpholino-phenyl)-1-(5-fluoro-3-pyridyl)-1,2,4-triazol-3-amine]",1 to 10,100 to 1000
"Cc1ccc(-n2cnc(Nc3cc(C)cc(N4CCCC4)c3)n2)cc1 [Compound 372, N-(3-methyl-5-pyrrolidin-1-yl-phenyl)-1-(p-tolyl)-1,2,4-triazol-3-amine]",1 to 10,10 to 100
"COCCN(C)c1cc(F)cc(-n2cnc(Nc3cc(C)cc(N4CCN(C5COC5)CC4)c3)n2)c1 [Compound 373, 1-[3-fluoro-5-[2-methoxyethyl(methyl)amino]phenyl]-N-[3-methyl-5-[4-(oxetan-3-yl)piperazin-1-yl]phenyl]-1,2,4-triazol-3-amine]",100 to 1000,100 to 1000
"Cc1cc(Nc2ncn(-c3cc(F)cc(F)c3)n2)cc(N2CCOCC2)c1 [Compound 374, 1-(3,5-difluorophenyl)-N-(3-methyl-5-morpholino-phenyl)-1,2,4-triazol-3-amine]",100 to 1000,100 to 1000
"Cc1cc(Nc2ncn(-c3cccc(F)c3)n2)cc(N2CCN(C3(C)COC3)CC2)c1 [Compound 375, 1-(3-fluorophenyl)-N-[3-methyl-5-[4-(3-methyloxetan-3-yl)piperazin-1-yl]phenyl]-1,2,4-triazol-3-amine]",1000 to 10000,10 to 100
"CC(C)(C)c1cc(Nc2ncn(-c3ccccc3)n2)cc(N2CCN(C3COC3)CC2)c1 [Compound 376, N-[3-tert-butyl-5-[4-(oxetan-3-yl)piperazin-1-yl]phenyl]-1-phenyl-1,2,4-triazol-3-amine]",100 to 1000,1 to 10
"COc1cc(-n2cnc(Nc3cc(C4CC4)cc(N4CCN(C5COC5)CC4)c3)n2)ncn1 [Compound 377, N-[3-cyclopropyl-5-[4-(oxetan-3-yl)piperazin-1-yl]phenyl]-1-(6-methoxypyrimidin-4-yl)-1,2,4-triazol-3-amine]",100 to 1000,10 to 100
"Fc1cc(F)cc(-n2cnc(Nc3cc(C4CC4)nc(N4CCCCC4)c3)n2)c1 [Compound 378, 2-cyclopropyl-N-[1-(3,5-difluorophenyl)-1,2,4-triazol-3-yl]-6-(1-piperidyl)pyridin-4-amine]",1 to 10,10 to 100
"Cc1cc(Nc2ncn(-c3cc(F)cc(F)c3)n2)cc(N2CC(n3cccn3)C2)c1 [Compound 379, 1-(3,5-difluorophenyl)-N-[3-methyl-5-(3-pyrazol-1-ylazetidin-1-yl)phenyl]-1,2,4-triazol-3-amine]",10 to 100,100 to 1000
"Clc1cc(Nc2ncn(-c3ccccc3)n2)cc(N2CCCC2)c1 [Compound 380, N-(3-chloro-5-pyrrolidin-1-yl-phenyl)-1-phenyl-1,2,4-triazol-3-amine]",100 to 1000,10 to 100
"Cc1cc(Nc2ncn(-c3cncnc3)n2)cc(N2CCN(C)CC2)c1 [Compound 381, N-[3-methyl-5-(4-methylpiperazin-1-yl)phenyl]-1-pyrimidin-5-yl-1,2,4-triazol-3-amine]",1 to 10,100 to 1000
"Cc1cc(Nc2ncn(-c3cccc(F)c3)n2)cc(C2CCN(C3COC3)C2)c1 (stereo not drawn) [Compound 382, 1-(3-fluorophenyl)-N-[3-methyl-5-[1-(oxetan-3-yl)pyrrolidin-3-yl]phenyl]-1,2,4-triazol-3-amine]",1000 to 10000,1 to 10
